The values below come from US9468641B2, “Anti-inflammatory pharmaceutical composition comprising benzopyranyl tetracycles” (SEOUL NATIONAL UNIVERSITY R&DB FOUNDATION, priority 2014, dated 2016).

For one test, the system named is BV-2 cells. The experiment in a line: Griess assay of LPS-induced nitrite release in BV-2 cells. The format is cell-based. The conditions noted are these: BV2 microglial cells, with or without LPS stimulation, FIG. 1. The protocol:
(§1) Cells increase the secretion of nitrite when induced to be inflammatory, but decrease the secretion of nitrite in the presence of an anti-inflammatory agent. […] Cells were treated with the compounds in the absence or presence of 100 ng/mL LPS (lipopolysaccharide). After 24 hrs of incubation, the cell culture media were reacted with Griess reagent (0.1% naphthylethylenediamine dihydrochloride and 1% sulfanilamide in 2% phosphoric acid). Absorbance was measured at 550 nm using a microplate reader, and the level of nitrite was estimated by comparison with a sodium nitrite standard curve.
Background: The Griess reaction detects nitrite, a stable product of nitric oxide.

Test [1] concerns HAPI cells, Primary neuroblastoma, and RAW 264.7 cells. Kind of test: Griess assay of nitrite release in further cell lines. The format is cell-based. The conditions noted are these: LPS stimulation, FIG. 2. The method, then: as §1
Test [2] relates to proinflammatory cytokine TNFα. Kind of test: TNF-α ELISA of LPS-induced secretion. The format is cell-based. The conditions noted are these: FIG. 4. The method, then: TNF-α secretion was measured using a TNF-α ELISA kit. Cells were treated with LPS in the absence or presence of ICM. After 24 hrs of incubation, the levels of TNF-α in the culture medium were measured with rat monoclonal anti-mouse TNF-α antibody as a capture antibody, and goat biotinylated polyclonal anti-mouse TNF-α antibody as a detection antibody. The biotinylated anti-TNF-α antibody was detected by sequential incubation with streptavidin-horseradish peroxidase conjugate. After incubation with a TMB substrate for 20 min, the color development was stopped by adding 2 N H2SO4. The absorbance was then read (450 nm and 540 nm) using a microplate reader.
(In general: An ELISA detects its analyte on a solid surface through an enzyme-linked reagent.)

Another test has as its system NF-κB signaling (p65). Kind of test: Immunofluorescence staining of nuclear translocation of p65. The settings on record: LPS stimulation, FIG. 5. The format is cell-based. The method, then:
Cells were pretreated with ICM and LPS for 1 hr and then fixed with 4% paraformaldehyde for 30 min at 20° C. and with cold methanol for 10 min at −20° C. After permeabilization with 0.3% Triton X-100 and PBS for 10 min, the fixed cells were blocked with 1% normal horse serum for 1 hr and incubated with mouse anti-p65 antibody at 4° C. for 12˜16 hrs. After washing with PBS containing 0.05% Tween-20 (PBST), Alexa Fluor-488-labeled goat anti-mouse IgG antibody was added to the sample, incubated for 1 hr at room temperature and washed with PBST. Nuclei were visualized by DAPI staining. Samples were analyzed by fluorescence microscopy.

In another test the target is T1, purified HMGB2 protein (Homo sapiens, UniProt P26583).
T1 sequence (P26583 1-209): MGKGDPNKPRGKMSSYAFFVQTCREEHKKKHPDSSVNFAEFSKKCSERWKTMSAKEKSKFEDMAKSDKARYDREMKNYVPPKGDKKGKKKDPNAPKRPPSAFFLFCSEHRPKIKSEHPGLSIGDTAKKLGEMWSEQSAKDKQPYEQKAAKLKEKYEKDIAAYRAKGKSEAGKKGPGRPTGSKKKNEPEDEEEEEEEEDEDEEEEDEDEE
The experiment in a line: SPR (surface plasmon resonance) assay. The settings on record: 1, 15, 30, 50, 75, and 100 μM ICM, FIG. 13. The format is binding. The method, then: To determine the dissociation constant of the interaction of ICM with HMGB, SPR analysis was performed using Biacore T100. A carboxyl group bound onto a CM5 chip of the biosensor was activated with EDC(1-ethyl-3-(3-dimethylaminopropyl)-carbodiimide) and NHS(N-hydroxysuccinimide) to form reactive succinimide ester. HMGB1 (10 mM Na-acetate, pH 4.0) and HMGB2 (10 mM Na-acetate, pH 4.5) proteins were immobilized via an amide bond onto the sensor chip, followed by quenching excess succinimide ester with 1 M ethanolamine-HCl (pH 8.0). PBS was used as a running buffer for the immobilization. After immobilization, various concentrations of ICM were injected (for 60 sec at a flow rate of 30 μl/min). […] For this, a buffer containing 10-mM HEPES (pH 7.4), 5% DMSO, 150 mM NaCl, 3 mM EDTA, and 0.005% P20 was injected. Binding was measured at 25° C. The measurements were analyzed using Biacore T100 Evaluation software (GE Healthcare). Finally, the curve was obtained by normalizing to the control. The dissociation constant was calculated by fitting the curve to the 1:1 binding model.
Background: In SPR one partner is held on a chip, and binding of the other changes the refractive index at the surface.

Test [3] addresses T2, HMGB2 (Mus musculus, UniProt P30681).
T2 construct: endogenous in cells
T2 sequence (P30681 1-210): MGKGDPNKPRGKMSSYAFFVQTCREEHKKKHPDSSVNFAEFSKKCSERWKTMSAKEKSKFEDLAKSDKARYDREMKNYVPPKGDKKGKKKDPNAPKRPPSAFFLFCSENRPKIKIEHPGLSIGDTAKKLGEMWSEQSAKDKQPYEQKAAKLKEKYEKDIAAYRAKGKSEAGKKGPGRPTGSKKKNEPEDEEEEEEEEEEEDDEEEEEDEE
The experiment in a line: Griess assay in BV-2 cells with siRNA-mediated HMGB2 knockdown. The format is cell-based. The conditions noted are these: normalized to DMSO treatment, FIG. 16. The protocol: as §1
The siRNA transfection of BV-2 microglial cells was performed using Lipofectamine™ 2000 (Invitrogen). Forty-eight hours after transfection, the cells were used for further experiments.

The target of test [4] is T2, HMGB2. The experiment in a line: Subcellular fractionation and secretion analysis. The format is cell-based. The conditions noted are these: LPS stimulation, western blotting, FIG. 17. The protocol: (§2) After exposure to ICM in the presence of LPS for 18 hrs, cells were lysed in subcellular fraction buffer (250 mM sucrose, 20 mM HEPES, 10 mM KCl, 1 mM EDTA, 1 mM EGTA, 1 mM DTT, and protease inhibitor cocktail), passed through a 25-Ga needle several times, and incubated on ice for 20 min. After centrifugation at 3,000 rpm for 5 min, the pellet and the supernatant were separated. The nuclear pellet was washed and then resuspended in standard lysis buffer with 10% glycerol and 0.1% SDS. The cytosolic fraction was obtained by centrifugation of the separated supernatant at 8,000 rpm for 15 min. The conditioned medium was collected for the analysis of the extracellular level of HMGBs and concentrated with Amicon Ultra 10K filters. The samples were analyzed by electrophoresis and western blotting.

For the next test, the system named is HMGB2 and HMGB1. Kind of test: Immunoprecipitation analysis of post-translational modification. The format is cell-based. The conditions noted are these: western blotting, FIG. 18. The method, then: as §2
For the analysis of post-translational modification levels on HMGB, immunoprecipitation was performed. […] The concentration of protein was measured by BCA assay, and the lysates were incubated overnight with an anti-phosphoserine antibody or an anti-acetylated lysine antibody at 4° C., followed by precipitation with a protein G immunoprecipitation kit (Sigma). Each of the samples was analyzed for HMGB2 level by western blot assays.

A further test deals with EAE model. Kind of test: Experimental auto-immune encephalitis (EAE) model. The format is in vivo, C57BL/6 mice.

On to `CC1(C)Oc2cc(O)ccc2C2C1=CCn1c(=O)n(-c3ccccc3)c(=O)n12` (stereo not shown) [ICM], for which, in the test with BV-2 cells, the LPS-induced nitrite release entry is reported as “efficiently blocked LPS-induced nitrite release from BV2 microglial cells in a dose-dependent manner”. Also, in test [1], the nitrite release result is on record as “inhibit nitrite release in a broad range of cell lines”. The “LPS-induced secretion of TNFα” value in [2] is listed as “suppressed LPS-induced secretion of the proinflammatory cytokine”. Moreover, the “nuclear translocation of p65” value in the test with NF-κB signaling (p65) is reported as “suppressed NF-κB signaling”. On purified HMGB2 protein, the “binding to HMGB (SPR sensorgram)” value is “binds directly to HMGB”. Further, on HMGB2 [3], the “anti-inflammatory effect on LPS-induced nitrite release under HMGB2 knockdown” value is reported as “anti-inflammatory effect of ICM was decreased by HMGB2 knockdown”. In addition, the “translocation of HMGB2 from nucleus to cytoplasm and extracellular milieu” value on HMGB2 [4] is on record as “the translocation was suppressed by ICM”. Besides, in the test with HMGB2 and HMGB1, the “LPS-induced phosphorylation and acetylation of HMGB2 and HMGB1” value is listed as “the post-translational modification was suppressed by ICM”. In addition, the “HMGB2 levels in cerebrospinal fluid and serum” value with EAE model (ELISA, FIG. 24) is reported as “effectively suppressed the release of HMGB2 into body fluids”. For the same molecule, in the test with EAE model (FIG. 21), the “microglial activation in spinal cords (anti-Iba-1 staining)” value is recorded as “clearly suppressed by ICM treatment”. For the same molecule, the “mRNA levels of proinflammatory cytokines and chemokines in microglia” value in the test on EAE model (RT-PCR, microglial cells from brain of EAE mice, FIG. 23) is listed as “decreased in the ICM-treated group”. For the same molecule, the “mean clinical score (0-5 scale)” value with EAE model (days after MOG immunization, FIG. 20) is “reduced with ICM treatment”. The “HMGB1 or HMGB2 levels in spinal cord sections” value in the test with EAE model (immunofluorescence, FIG. 25) was “effectively reduced the EAE-induced increase of HMGB1 or HMGB2 levels”. Moreover, the “MAP-2 levels in ventral horn and ventral column” value in the test with EAE model (immunofluorescence, FIG. 26) is recorded as “effectively recovered by ICM administration”. Also, the “inflammatory lesions in spinal cords (H&E staining)” value with EAE model (lumbar spinal cord, 15 days after EAE induction, FIG. 22) is recorded as “substantially attenuated by ICM treatment”. For the same molecule, in the test on EAE model (spinal cord sections, FIG. 27), the “demyelination (anti-MBP staining)” value is “suppresses the demyelination in the EAE model”.
